{
  "source": "patent US20260242390A1",
  "about": "“TOTAL SYNTHESES OF PORTIMINE A AND ANALOGUES THEREOF AS SMALL MOLECULE MODULATORS OF NMD3” (priority 2023, published 2026)",
  "key": {"GBM-A": {"tested_on": "GBM-A", "assay": "Broad cell line profiling, GBM-A", "assay_type": "cell-based", "settings": "Homo sapiens, Glioblastoma Cancer Stem Cell, read-out: PA IC50", "description": "(§1) • A panel of human and mouse cancer cell types used to assess the breadth of PA activity, including multiple therapy resistant metastatic mesenchymal tumor cell lines and primary glioblastoma patient-derived metastatic stem/tumor initiating cell populations."}, "HepG2": {"tested_on": "HepG2", "assay": "Broad cell line profiling, HepG2", "assay_type": "cell-based", "settings": "Homo sapiens; HepG2, Hepatocellular Carcinoma; read-out: PA IC50", "description": "as §1"}, "A673": {"tested_on": "A673", "assay": "Broad cell line profiling, A673", "assay_type": "cell-based", "settings": "A673, Human Ewings Sarcoma; read-out: PA IC50", "description": "as §1"}, "NMD3 mRNA": {"tested_on": "NMD3 mRNA", "assay": "NMD3 mRNA level in cells", "assay_type": "cell-based, human", "method": "FIG. 6. Portimine A inhibits S phase entry in Jurkat cells. Portimine A downregulates NMD3 at protein level but upregulates in mRNA level in cells, as well as some essential apoptosis proteins. […] Protein degradation of p53, Mcl1, Bid, Bim, Noxa can be rescued by MG132 or Epoxomicin. (B) NMD3 mRNA increased after PA treatment, but not ePA control compound. Jurkat cells were treated with indicated compounds for 24 hr; Cells were then fixed and perform Propidium Iodide staining.\n• 1) Portimine A and its functional analogs show stereo-selective acute toxicity in cancer cells (FIG. 1). […] (B) Structure of portimine related analogs: phenyl-portimine A (Ph-PA, 36) and epi-portimine A (ePA, 38). Structure of fully functionalized portimine A-based epimeric probe pair: portimine A-diazirine-alkyne (PA-DA, 35-2) and epi-portimine A-diazirine-alkyne (ePA-DA, 35-1). (C) Cell viability analysis of portimine A and analogs. Jurkat cells were treated with increasing concentrations of portimine A and analogs for 24 hours. All presented data as mean of biological replicated experiments (n=3). […] Jurkat cells were treated with portimine A or analogs for 12 hours at 10 nM. […] Cell lysates were fractionated by sucrose gradient (5-50%) and each fraction were analyzed by western blot. eIF6 levels increase in 60S subunit fraction and decrease in ribosome-free fractions after PA treatment. […]"}},
  "data": [
    {"smiles": "C=CC1=C[C@@H]2[C@@H]3O[C@]4(CC[C@H](O4)C(C)C[C@@H](O)C3=O)CC(O)C3=NCC[C@@]32CC1", "note": "(stereo partly shown) [PA, portimine A]", "values": [
      {"measurement": "IC50", "setting": "GBM-A", "value": 2.6, "unit": "nM"},
      {"measurement": "IC50", "setting": "HepG2", "value": 4.8, "unit": "nM"},
      {"measurement": "IC50", "setting": "A673", "value": 2.5, "unit": "nM"},
      {"measurement": "NMD3 mRNA", "setting": "NMD3 mRNA", "value": "increased"}
    ]}
  ]
}
